Assay: recombinant barcode read abundance after kanamycin selection (control-corrected) (log10(CPM+1)); higher = more efficient recombination; sequences stand for … in AGTGCAGAGAAAATCGGCCAGTTTTCTCTGCCTGCAGTCCGCATGCCGT…AGATTTATGCAGCGGACTGCCTTTCTCCCAAAGTGATAAACCGGACAGTATCATGGACCGGTTTTCCCGGTAATCCGTATTTGCAAGGTTGGTTTCACT; site = the 11-nt target
Summary of the method: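 In a pooled screen in E. coli, targets were paired with target-binding loops of the IS621 bridge RNA. Each oligo carried a promoter, a target, a barcode and the first 104 bridge RNA bases driven by J23119, and was Gibson-cloned into a vector holding the remaining 73 bp and a T7-inducible recombinase before co-electroporation with a donor plasmid. Duplicate platings went onto chloramphenicol/ampicillin LB agar as the control or onto chloramphenicol/ampicillin/kanamycin with 0.1 mM IPTG. Recombination efficiency is the averaged, control-corrected count per million of barcodes at recombinant junctions, given as log10(CPM+1).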
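Further: IS621 recombinase and bridge RNA in Escherichia coli cells.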

“CCACAGTCTTGGGTTCTAACCTGTTGCCT (site CCACCGTCTAG)” and “CCACAGTCTTGGGTTCTAACCTGTTGCCT (site CCACGGTCTAG)” are within 0.2 log units of each other in “recombinant barcode read abundance (log10)” value: 0.117 for the first, 0.169 for the second.

Compared with “CCACAGTCTTGGGTTCTAACCTGTTGCCT (site CCACTGTCTAG)”, “CCACGAGCTTGGGTTCTAACCTGTTGCGG (site CCACGAGCTCC)” is higher in “recombinant barcode read abundance (log10)” value: 0.0628 for the first, 1.4 for the second.

First: CCACGAGCTTGGGTTCTAACCTGTTGCGG (site CGACGAGCTCC)
Second: CCACGGCCTTGGGTTCTAACCTGTTGCAT (site CCACGGCCTAT)
The “recombinant barcode read abundance (log10)” value of the first is lower: 0.148 for the first, 1.21 for the second.

Compared with “CCACGGCCTTGGGTTCTAACCTGTTGCAT (site CCTCGGCCTAT)”, “CCACTACCTTGGGTTCTAACCTGTTGCCT (site CCACTACCTAG)” is higher in “recombinant barcode read abundance (log10)” value: 0 for the first, 0.253 for the second.

“CCACTACCTTGGGTTCTAACCTGTTGCCT (site CCACTCCCTAG)” and “CCACTACCTTGGGTTCTAACCTGTTGCCT (site CCACTGCCTAG)” are within 0.2 log units of each other in “recombinant barcode read abundance (log10)” value: 0.0236 for the first, 0.0373 for the second.

Going from “CCACTACCTTGGGTTCTAACCTGTTGCCT (site CCACTTCCTAG)” to “CCACTGTCTTGGGTTCTAACCTGTTGCCT (site CCACAGTCTAG)”, the “recombinant barcode read abundance (log10)” value rises from 0.0936 to 0.806.

“CCACTGTCTTGGGTTCTAACCTGTTGCCT (site CCACCGTCTAG)” and “CCACTGTCTTGGGTTCTAACCTGTTGCCT (site CCACGGTCTAG)” are within 0.2 log units of each other in “recombinant barcode read abundance (log10)” value: 0.0386 for the first, 0.0729 for the second.

First: CCACTGTCTTGGGTTCTAACCTGTTGCCT (site CCACTGTCTAG)
Second: CCAGAGTCTTGGGTTCTAACCTGTTGCCA (site CCAGAGTCTCG)
The “recombinant barcode read abundance (log10)” value of the first is higher: 0.632 for the first, 0 for the second.

Compared with “CCAGAGTCTTGGGTTCTAACCTGTTGCCA (site CCAGAGTCTTG)”, “CCAGCAGCTTGGGTTCTAACCTGTTGCCT (site CCAGAAGCTAG)” is lower in “recombinant barcode read abundance (log10)” value: 1.22 for the first, 0.0762 for the second.

Going from “CCAGCAGCTTGGGTTCTAACCTGTTGCCT (site CCAGCAGCTAG)” to “CCAGCAGCTTGGGTTCTAACCTGTTGCCT (site CCAGGAGCTAG)”, the “recombinant barcode read abundance (log10)” value falls from 0.675 to 0.0858.

Compared with “CCAGCAGCTTGGGTTCTAACCTGTTGCCT (site CCAGTAGCTAG)”, “CCAGGTCCTTGGGTTCTAACCTGTTGCGT (site CCAGGTCCTAC)” is higher in “recombinant barcode read abundance (log10)” value: 0.76 for the first, 2.45 for the second.

Compared with “CCAGGTCCTTGGGTTCTAACCTGTTGCGT (site CCAGGTCCTAT)”, “CCATACGCTTGGGTTCTAACCTGTTGCCT (site CCATACGCTAG)” is lower in “recombinant barcode read abundance (log10)” value: 1.81 for the first, 0.178 for the second.

“CCATACGCTTGGGTTCTAACCTGTTGCCT (site CGAGACGCTAG)” and “CCATCAACTTGGGTTCTAACCTGTTGCCT (site CCATCAACTAG)” are within 0.2 log units of each other in “recombinant barcode read abundance (log10)” value: 0.189 for the first, 0.0699 for the second.

“CCATCAACTTGGGTTCTAACCTGTTGCCT (site CCATGAACTTG)” and “CCATCTCCTTGGGTTCTAACCTGTTGCCT (site ACATCTCCTAG)” are within 0.2 log units of each other in “recombinant barcode read abundance (log10)” value: 0.0637 for the first, 0.0982 for the second.

First: CCATCTCCTTGGGTTCTAACCTGTTGCCT (site CCATCTCCTAG)
Second: CCATCTCCTTGGGTTCTAACCTGTTGCCT (site GCATCTCCTAG)
The “recombinant barcode read abundance (log10)” value of the first is higher: 0.492 for the first, 0.127 for the second.

Going from “CCATCTCCTTGGGTTCTAACCTGTTGCCT (site TCATCTCCTAG)” to “CCGAAGCCTTGGGTTCTAACCTGTTGCCT (site CCGAAGCCTAG)”, the “recombinant barcode read abundance (log10)” value rises from 0.0439 to 1.01.

“CCGAAGCCTTGGGTTCTAACCTGTTGCCT (site CCGCAGCCTAG)” and “CCGAAGCCTTGGGTTCTAACCTGTTGCCT (site CCGGAGCCTAG)” are within 0.2 log units of each other in “recombinant barcode read abundance (log10)” value: 0.256 for the first, 0.144 for the second.

“CCGAAGCCTTGGGTTCTAACCTGTTGCCT (site CCGTAGCCTAG)” and “CCGAATGCTTGGGTTCTAACCTGTTGCCT (site CCGAATGCTAG)” are within 0.2 log units of each other in “recombinant barcode read abundance (log10)” value: 0.143 for the first, 0.188 for the second.

“CCGAATGCTTGGGTTCTAACCTGTTGCCT (site CCGCATGCTAG)” and “CCGAATGCTTGGGTTCTAACCTGTTGCCT (site CCGGATGCTAG)” are within 0.2 log units of each other in “recombinant barcode read abundance (log10)” value: 0.0438 for the first, 0.144 for the second.

First: CCGAATGCTTGGGTTCTAACCTGTTGCCT (site CCGTATGCTAG)
Second: CCGATCACTTGGGTTCTAACCTGTTGCCT (site CCGATCACTAG)
The “recombinant barcode read abundance (log10)” value of the first is lower: 0.155 for the first, 1.14 for the second.

First: CCGATCACTTGGGTTCTAACCTGTTGCCT (site CGTATCACTAG)
Second: CCGCAGACTTGGGTTCTAACCTGTTGCTT (site CCGCAGACTAA)
The “recombinant barcode read abundance (log10)” value of the first is lower: 0.034 for the first, 1.33 for the second.

First: CCGCAGACTTGGGTTCTAACCTGTTGCTT (site CCGCGGACTAA)
Second: CCGCCCTCTTGGGTTCTAACCTGTTGCTT (site CAGCCCTCTTA)
The “recombinant barcode read abundance (log10)” value of the first is lower: 0.013 for the first, 0.586 for the second.

“CCGCCCTCTTGGGTTCTAACCTGTTGCTT (site CCGCCCTCTAA)” and “CCGCGCACTTGGGTTCTAACCTGTTGCCT (site CCGCGCACTAG)” are within 0.2 log units of each other in “recombinant barcode read abundance (log10)” value: 0.291 for the first, 0.397 for the second.

“CCGCGCACTTGGGTTCTAACCTGTTGCCT (site CCGCGCTCTAG)” and “CCGCGTGCTTGGGTTCTAACCTGTTGCCT (site CAGCGTGCTAG)” are within 0.2 log units of each other in “recombinant barcode read abundance (log10)” value: 0.206 for the first, 0.161 for the second.

First: CCGCGTGCTTGGGTTCTAACCTGTTGCCT (site CCGCGTGCTAG)
Second: CCGCGTGCTTGGGTTCTAACCTGTTGCCT (site CGGCGTGCTAG)
The “recombinant barcode read abundance (log10)” value of the first is lower: 0.0933 for the first, 0.523 for the second.

Compared with “CCGCGTGCTTGGGTTCTAACCTGTTGCCT (site CTGCGTGCTAG)”, “CCGCTACCTTGGGTTCTAACCTGTTGCGG (site CCGCTACCTCC)” is higher in “recombinant barcode read abundance (log10)” value: 0.0444 for the first, 0.474 for the second.

“CCGCTACCTTGGGTTCTAACCTGTTGCGG (site TCGCTAGCTCC)” and “CCGTATGCTTGGGTTCTAACCTGTTGCCT (site CCGAATGCTAG)” are within 0.2 log units of each other in “recombinant barcode read abundance (log10)” value: 0.0965 for the first, 0.234 for the second.

“CCGTATGCTTGGGTTCTAACCTGTTGCCT (site CCGCATGCTAG)” and “CCGTATGCTTGGGTTCTAACCTGTTGCCT (site CCGGATGCTAG)” are within 0.2 log units of each other in “recombinant barcode read abundance (log10)” value: 0.104 for the first, 0.0205 for the second.

“CCGTATGCTTGGGTTCTAACCTGTTGCCT (site CCGTATGCTAG)” and “CCGTCACCTTGGGTTCTAACCTGTTGCCT (site ACGTCACCTAG)” are within 0.2 log units of each other in “recombinant barcode read abundance (log10)” value: 0.168 for the first, 0.264 for the second.

In the case of “CCGTCACCTTGGGTTCTAACCTGTTGCCT (site CCGTCACCTAG)”, the “recombinant barcode read abundance (log10)” value is reported as 1.29.
